# Assay results reported in ChEMBL document CHEMBL1130720, “Design, synthesis, and conformational analysis of a novel series of HIV protease inhibitors” (Bioorg Med Chem Lett, 1998).
# Tests used:
# [1] = target: T1, Human immunodeficiency virus type 1 protease (Human immunodeficiency virus 1, UniProt Q72874); assay: Binding affinity to HIV-1 protease was determined
# [2] = target: T1, Human immunodeficiency virus type 1 protease; assay: Binding affinity against HIV-1 protease was determined
Compound,Ki [1],Ki [2]
COc1ccc(S(=O)(=O)N(CC2CCCC2)C[C@@H](O)CN(CCc2ccccc2)C(=O)Cc2ccccc2)cc1,20 nM,–
COc1ccc(S(=O)(=O)N(CC2CCCC2)C[C@@H](O)CN(CCc2ccccc2)C(=O)Nc2ccccc2)cc1,–,> 20000 nM
COc1ccc(S(=O)(=O)N(CC2CCCC2)C[C@@H](O)CN(CCc2ccccc2)C(=O)OCc2cncs2)cc1,38 nM,–
COc1ccc(S(=O)(=O)N(CC2CCCC2)C[C@@H](O)CN(Cc2ccccc2)C(=O)O[C@H]2CCOC2)cc1,600 nM,–
COc1ccc(S(=O)(=O)N(CC2CCCC2)C[C@@H](O)CN(CCc2ccccc2)C(=O)OC2CCCSC2)cc1 (some centres undefined),300 nM,–
COc1ccc(S(=O)(=O)N(CC2CCCC2)C[C@@H](O)CN(CCc2ccccc2)C(=O)OC2CCCS(=O)(=O)C2)cc1 (some centres undefined),1400 nM,–
COc1ccc(S(=O)(=O)N(CC2CCCC2)C[C@@H](O)CN(CCc2ccccc2)C(=O)Cc2cccc(O)c2C)cc1,66 nM,–
CNC(=O)N(CCc1ccccc1)C[C@H](O)CN(CC1CCCC1)S(=O)(=O)c1ccc(OC)cc1,–,3400 nM
COc1ccc(S(=O)(=O)N(CC2CCCC2)C[C@@H](O)CN(CCc2ccccc2)C(=O)NC(C)C)cc1,–,> 10000 nM
COc1ccc(S(=O)(=O)N(CC2CCCC2)C[C@@H](O)CN(CCc2ccccc2)C(=O)OC2COCOC2)cc1,15 nM,–
COc1ccc(S(=O)(=O)N(CC2CCCC2)C[C@@H](O)CN(CCc2ccccc2)C(=O)NC(C)(C)C)cc1,–,2100 nM
COc1ccc(S(=O)(=O)N(CC2CCCC2)C[C@@H](O)CN(CCc2ccccc2)C(=O)O[C@H]2CCOC2)cc1,40 nM,–
COc1ccc(S(=O)(=O)N(CC2CCCC2)C[C@@H](O)CN(CCc2ccccc2)C(=O)Oc2ccccc2)cc1,173 nM,–
COc1ccc(S(=O)(=O)N(CC2CCCC2)C[C@@H](O)CN(CCc2ccccc2)C(=O)OC2CCSC2)cc1 (some centres undefined),104 nM,–
COc1ccc(S(=O)(=O)N(CC2CCCC2)C[C@@H](O)CN(CCc2ccccc2)C(=O)N[C@H]2c3ccccc3C[C@H]2O)cc1,–,43 nM
COc1ccc(S(=O)(=O)N(CC2CCCC2)C[C@@H](O)CN(CCc2ccccc2)C(=O)OC2CCS(=O)(=O)C2)cc1 (some centres undefined),38 nM,–
COc1ccc(S(=O)(=O)N(CC2CCCC2)C[C@@H](O)CN(CCc2ccccc2)C(=O)Cc2cncc(NS(N)(=O)=O)c2)cc1,220 nM,–
COc1ccc(S(=O)(=O)N(CC2CCCC2)C[C@@H](O)CN(CCc2ccccc2)C(=O)OC(C)(C)C)cc1,125 nM,–
COc1ccc(S(=O)(=O)N(CC2CCCC2)C[C@@H](O)CN(CCc2ccccc2)C(=O)Nc2cccc(OC)c2)cc1,–,> 10000 nM
COc1ccc(S(=O)(=O)N(CC2CCCC2)C[C@@H](O)CN(CCc2ccccc2)C(=O)O[C@@H]2CO[C@H]3OCC[C@H]32)cc1,50 nM,–
COc1ccc(S(=O)(=O)N(CC2CCCC2)C[C@@H](O)CN(CCc2ccccc2)C(=O)OCc2cccnc2)cc1,17 nM,–
COc1ccc(S(=O)(=O)N(CC2CCCC2)C[C@@H](O)CN(CCc2ccccc2)C(=O)Cc2cccc(NS(N)(=O)=O)c2)cc1,29 nM,–
COc1ccc(S(=O)(=O)N(CC2CCCC2)C[C@@H](O)CN(CCc2ccccc2)C(=O)NC2CCc3ccccc32)cc1 (some centres undefined),–,> 10000 nM
COc1ccc(S(=O)(=O)N(CC2CCCC2)C[C@@H](O)CN(CCc2ccccc2)C(=O)CC2CCCC(NS(N)(=O)=O)C2)cc1 (some centres undefined),76 nM,–
COc1ccc(S(=O)(=O)N(CC2CCCC2)C[C@@H](O)CN(CCc2ccccc2)C(=O)OCc2ccncc2)cc1,200 nM,–
COc1ccc(S(=O)(=O)N(CC2CCCC2)C[C@@H](O)CN(CCc2ccccc2)C(=O)Cc2cccc(NS(N)(=O)=O)c2C)cc1,680 nM,–
COc1ccc(S(=O)(=O)N(CC2CCCC2)C[C@@H](O)CN(CCc2ccccc2)C(=O)NCc2ccccc2)cc1,–,22 nM
COc1ccc(S(=O)(=O)N(CC2CCCC2)C[C@@H](O)CN(CCc2ccccc2)C(=O)Cc2ccncc2NS(N)(=O)=O)cc1,27 nM,–
"COc1ccc(S(=O)(=O)N(CC(O)CN(CCc2ccccc2)C(=O)N[C@H](C(=O)OCc2ccccc2)C(C)C)CC2CCCC2)cc1 (single isomer, unassigned)",7 nM,–
